Values after ≈ are worked out from the molar mass of the structure shown. “Also recorded” adds a separate entry of the source. Counter-ions that a name gives are not always drawn.
What was measured:
[1] = test system: Streptococcus haemolyticus cook; experiment: Antimicrobial spectrum, minimum inhibition concentration; type: cell-based
mice = experiment: Toxicity (LD50) against mice; type: in vivo; details: intraperitoneal administration
Source text: (§1) As is well known, LD50, or the median lethal dose, is the dose which is fatal to 50% of the test animals, and the larger the LD50 is, the lower the toxicity of the test material is.

[2] = Toxicity (LD50) against mice; type: in vivo; details: mouse, in vivo
Source text: as §1

[3] = test system: Aspergillus fumigatus Saito; experiment: Antimicrobial spectrum, minimum inhibition concentration; type: cell-based
Escherichia coli 0-78 = experiment: as above; type: cell-based; details: 078
Salmonella typhi O-901-W = experiment: as above; type: cell-based; details: Salmonella enterica
Escherichia coli 0-135 = experiment: as above; type: cell-based; details: 0135
Candida albicans Totuka = experiment: as above; type: cell-based
[4] = Field clinical test to treat the scours of pigs; type: in vivo; parameters: key to Severity of Conditions, 4th day / Severity of Conditions, 5th day: +++: watery feces; ++: muddy feces; +: soft feces; --: normal feces
Procedure: In use, 2,3,3-triiodo-allyl-methyl ether in crystal form is formed into a fine powder, and either coated with gelatin to a content of about 10% of the ether powder or diluted 10-fold with lactose. It is used in an amount of about 10 mg or more per kilogram of the body weight of the swine in one dosage, and may be increased according to the case. Usually, it is administered twice on the first day, and thereafter, once a day for 3 to 4 days. By this method of treatment, the disease is generally cured in about 5 days.
2,3,3-triiodo-allyl-methyl ether was finely divided in a mortar, and then diluted 10-fold with lactose. A field clinical test was performed using this formulation to treat the scours of 41 pigs. The formulation was administered orally twice on the first day and once a day for the next 3 to 4 days. In this table, the symbols +++, ++, + and -- have the following meanings: […]

Escherichia coli 0-20 = experiment: Antimicrobial spectrum, minimum inhibition concentration; type: cell-based; details: 020
Tricophyton asteroides = experiment: as above; type: cell-based
Escherichia coli 0-142 = experiment: as above; type: cell-based; details: 0142
[5] = Growth (increased body weights) of starting chicks raised on mixed feed for 10 weeks; type: in vivo; details: for Weight Increase Index: non-added group = 100.0
Source text: An amount of 2,3,3-triiodo-allyl-methyl ether as shown in Table 3 was uniformly mixed into one ton of a poultry compound feed. The 2,3,3-triiodo-allyl-methyl ether had been premixed with 100 times its weight of defatted rice bran. Using this mixed feed, 20 starting chicks were raised for 10 weeks.

[6] = test system: Cryptococcus neoformans 301; experiment: Antimicrobial spectrum, minimum inhibition concentration; type: cell-based
Escherichia coli 0-139 = experiment: as above; type: cell-based; details: 0139
[7] = Absorption, residue and cross resistance as feed additive (poultry)
[8] = Absorption, residue and cross resistance as agent for swine scours
Escherichia coli 0-83 = experiment: Antimicrobial spectrum, minimum inhibition concentration; type: cell-based; details: 083
El-tor vibrio = experiment: as above; type: cell-based
Escherichia coli 0-16 = experiment: as above; type: cell-based; details: 016
[9] = test system: Staphylococcus aureus 209-p; experiment: as above; type: cell-based
[10] = Comparative experiment: effect of kanamycin sulfate against scours of swine (control); type: in vivo; parameters: key to Severity of Conditions, 1st day / Severity of Conditions, 2nd day / Severity of Conditions, 3rd day / Severity of Conditions, 4th day / Severity of Conditions, 5th day: +++: watery feces; ++: muddy feces; +: soft feces; --: normal feces; details: individual swine (one table line each), single dosage 60-150 mg/Kg
Source text: Effect of Kanamycin Sulfate against Scours of […]

[11] = individual pigs (one table line each), oral, single dosage 35-200 mg/Kg, diluted 10-fold with lactose
[12] = chicks, inferred from body weight at great quantities
[13] = chicks, comparative antibiotic, 20 g

Compound: COCC(I)=C(I)I [2,3,3-triiodo-allyl-methyl ether, methyl-2,3,3-triiodoallylether]
- MIC [1]: 12.5 µg/mL (≈ 27.8 µM)
- LD50 (mice): 50 to 100 mg/kg
- LD50 ([2]; ip, intraperitoneal administration): 50 to 100 mg/kg
- LD50 ([2]; oral administration): > 1000 mg/kg
- selectivity ratio ([2]; times or more as great, read-out: LD50 in oral administration relative to that in intraperitoneal administration): 10 to 20
- MIC [3]: 3.12 µg/mL (≈ 6.94 µM)
- MIC (Escherichia coli 0-78): 3.12 µg/mL (≈ 6.94 µM)
- MIC (Salmonella typhi O-901-W): 3.12 µg/mL (≈ 6.94 µM)
- MIC (Escherichia coli 0-135): 3.12 µg/mL (≈ 6.94 µM)
- MIC (Candida albicans Totuka): 3.12 µg/mL (≈ 6.94 µM)
- Effect against the diarrhea of swine ([4]; Table 4, comparison with kanamycin sulfate): superior effect
- Severity of Conditions, 4th day [4, 11]: -- and + and ++
- Severity of Conditions, 5th day [4, 11]: --
- Time in which the disease is generally cured ([4]; swine scours, about 10 mg or more per kg, twice first day, then once a day for 3 to 4 days): about 5 days
- MIC (Escherichia coli 0-20): 0.78 µg/mL (≈ 1.73 µM)
- MIC (Tricophyton asteroides): 1.56 µg/mL (≈ 3.47 µM)
- MIC (Escherichia coli 0-142): 6.25 µg/mL (≈ 13.9 µM)
- Body weight after 10 weeks compared with the group not given the additive ([5]; all groups fed the additive): showed an increase in body weight after 10 weeks
- Body weight, 2nd week ([5]; chicks, 1 g/ton of feed): 120.4
- Body weight, 4th week ([5]; chicks, 1 g/ton of feed): 357.4
- Body weight, 6th week ([5]; chicks, 1 g/ton of feed): 682.4
- Body weight, 8th week ([5]; chicks, 1 g/ton of feed): 1084.4
- Body weight, 10th week ([5]; chicks, 1 g/ton of feed): 1329.7
- Weight Increase Index ([5]; chicks, 1 g/ton of feed): 109.9
- Body weight, 2nd week ([5]; chicks, 5 g/ton of feed): 125.9
- Body weight, 4th week ([5]; chicks, 5 g/ton of feed): 362.1
- Body weight, 6th week ([5]; chicks, 5 g/ton of feed): 706.2
- Body weight, 8th week ([5]; chicks, 5 g/ton of feed): 1099.3
- Body weight, 10th week ([5]; chicks, 5 g/ton of feed): 1408.4
- Weight Increase Index ([5]; chicks, 5 g/ton of feed): 116.4
- Body weight, 2nd week ([5]; chicks, 10 g/ton of feed): 147.6
- Body weight, 4th week ([5]; chicks, 10 g/ton of feed): 388.0
- Body weight, 6th week ([5]; chicks, 10 g/ton of feed): 764.0
- Body weight, 8th week ([5]; chicks, 10 g/ton of feed): 1150.7
- Body weight, 10th week ([5]; chicks, 10 g/ton of feed): 1512.1
- Weight Increase Index ([5]; chicks, 10 g/ton of feed): 125.0
- Body weight, 2nd week ([5]; chicks, 20 g/ton of feed): 120.4
- Body weight, 4th week ([5]; chicks, 20 g/ton of feed): 350.2
- Body weight, 6th week ([5]; chicks, 20 g/ton of feed): 647.3
- Body weight, 8th week ([5]; chicks, 20 g/ton of feed): 990.7
- Body weight, 10th week ([5]; chicks, 20 g/ton of feed): 1303.1
- Weight Increase Index ([5]; chicks, 20 g/ton of feed): 109.7
- Body weight, 2nd week ([5]; chicks, 50 g/ton of feed): 124.3
- Body weight, 4th week ([5]; chicks, 50 g/ton of feed): 359.4
- Body weight, 6th week ([5]; chicks, 50 g/ton of feed): 671.3
- Body weight, 8th week ([5]; chicks, 50 g/ton of feed): 1030.5
- Body weight, 10th week ([5]; chicks, 50 g/ton of feed): 1382.2
- Weight Increase Index ([5]; chicks, 50 g/ton of feed): 114.3
- Body weight, 2nd week ([5]; chicks, 100 g/ton of feed): 128.2
- Body weight, 4th week ([5]; chicks, 100 g/ton of feed): 349.8
- Body weight, 6th week ([5]; chicks, 100 g/ton of feed): 663.1
- Body weight, 8th week ([5]; chicks, 100 g/ton of feed): 946.7
- Body weight, 10th week ([5]; chicks, 100 g/ton of feed): 1223.7
- Weight Increase Index ([5]; chicks, 100 g/ton of feed): 101.2
- Body weight, 2nd week ([5]; chicks, 200 g/ton of feed): 106.5
- Body weight, 4th week ([5]; chicks, 200 g/ton of feed): 343.2
- Body weight, 6th week ([5]; chicks, 200 g/ton of feed): 686.3
- Body weight, 8th week ([5]; chicks, 200 g/ton of feed): 1039.6
- Body weight, 10th week ([5]; chicks, 200 g/ton of feed): 1298.3
- Weight Increase Index ([5]; chicks, 200 g/ton of feed): 107.3
- Effect of great quantities on body weight ([5]; chicks, addition of great quantities): did not cause a decrease in body weight
- Absorption by the digestive tract [5, 12]: little absorbed
- Side-effects [5, 12]: does not have side-effects
- MIC [6]: 0.78 µg/mL (≈ 1.73 µM)
- MIC (Escherichia coli 0-139): 12.5 µg/mL (≈ 27.8 µM)
- Cross resistance ([7]; feed additive for poultry): does not have cross resistance
- Absorption by the digestive tract of poultry ([7]; poultry): hardly absorbed
- Residue build-up ([7]; poultry): free from residue build-up
- Cross resistance ([8]; agent for swine scours): does not have cross resistance
- Absorption by the digestive tract of swine ([8]; swine): hardly absorbed
- Build-up of residue ([8]; swine): does not cause a build-up of residue
- MIC (Escherichia coli 0-83): 12.5 µg/mL (≈ 27.8 µM)
- MIC (El-tor vibrio): 3.12 µg/mL (≈ 6.94 µM)
- MIC (Escherichia coli 0-16): 6.25 µg/mL (≈ 13.9 µM)
- MIC [9]: 6.25 µg/mL (≈ 13.9 µM)

Compound: NC[C@H]1O[C@H](O[C@H]2[C@H](O)[C@@H](O[C@H]3O[C@H](CO)[C@@H](O)[C@H](N)[C@H]3O)[C@H](N)C[C@@H]2N)[C@H](O)[C@@H](O)[C@@H]1O [Kanamycin Sulfate]
- Evaluation [10]: Cured; also recorded: Deaths
- Severity of Conditions, 1st day [10]: ++ and + and +++
- Severity of Conditions, 2nd day [10]: ++ and + and -- and +++
- Severity of Conditions, 3rd day [10]: + and ++ and --
- Severity of Conditions, 4th day [10]: -- and + and ++
- Severity of Conditions, 5th day [10]: -- and + and ++

Compound: CC1(C)S[C@@H]2[C@H](NC(=O)Cc3ccccc3)C(=O)N2[C@H]1C(=O)O [Procaine Pencillin G]
- Body weight, 2nd week [5, 13]: 127.3
- Body weight, 4th week [5, 13]: 374.6
- Body weight, 6th week [5, 13]: 664.2
- Body weight, 8th week [5, 13]: 1012.9
- Body weight, 10th week [5, 13]: 1324.0
- Weight Increase Index [5, 13]: 109.5
